{"source": "patent US20240148819A1", "about": "“COMPOUNDS FOR USE IN THE TREATMENT OF SINUSITIS, PNEUMONIA OR OTITIS” (PHARMA HOLDINGS AS, priority 2021, published 2024)", "key": {"HeLa cells [1]": {"tested_on": "HeLa cells", "details": "1% LTX-109 (w/v) or 0.25% SDS, after filtration, no virus, dilution showing cytotoxicity", "protocol": "(§7) A parallel test where the same procedure was carried out in the absence of virus was included to determine any residual cytotoxic effect of the formulation on the assay cells."}, "HeLa cells [2]": {"tested_on": "HeLa cells", "assay": "Parallel test without virus for residual cytotoxicity (Example 7)", "type": "cell-based, human", "details": "3% LTX-109 (w/v) or 0.25% SDS, after dilution (50 μl in 5 ml), no virus", "protocol": "as §7"}, "Rhinovirus 60, 2268-CV37 [3]": {"tested_on": "Rhinovirus 60, 2268-CV37", "assay": "TCID50 assay after 1 h incubation of virus with 3% LTX-109, stopped by dilution (Example 7)", "type": "cell-based"}, "[4]": {"tested_on": "Rhinovirus (HRV-A60), Strain: 2268-CV37", "assay": "TCID50 assay after 1 h incubation of virus with LTX-7 (Example 10)", "type": "cell-based", "details": "1% LTX-7 or 0.25% SDS; for % Reduction: Rhinovirus infectivity; for % Reduction / Log decrease: compared to PBS control; for Log decrease: Rhinovirus"}, "HeLaM cells": {"tested_on": "HeLaM cells", "details": "1% LTX-7 (w/v) or 0.25% SDS in PBS, contact time 1 h, after filtration, no virus", "protocol": "(§8) A parallel test where the same procedure was carried out in the absence of virus was included to determine any residual cytotoxic effect of LTX-7 on the assay cells."}, "Rhinovirus 60, 2268-CV37 [5]": {"tested_on": "Rhinovirus 60, 2268-CV37", "assay": "TCID50 assay after 1 h incubation of virus with 1% LTX-109 (Example 6)", "type": "cell-based"}, "Mycoplasma pneumoniae": {"tested_on": "Mycoplasma pneumoniae", "details": "both of the library strains of Mycoplasma pneumoniae", "experimental": "Two library strains of Mycoplasma pneumoniae were used. These strains were stored at GR Micro Ltd. and maintained, with minimal sub-culture, deep frozen at −70° C. as a dense suspension in a high protein matrix of undiluted horse serum.\nMIC determination was carried out using a broth microdilution method in Mycoplasma Broth Base (Oxoid Ltd, Hampshire, UK), prepared according to the manufacturer's instructions."}, "MDCK-II cells": {"tested_on": "MDCK-II cells", "details": "1% LTX-7 (w/v) or 0.2% Triton X-100 in PBS, contact time 1 h, after filtration, no virus", "protocol": "as §8"}, "Candida albicans": {"tested_on": "Candida albicans", "experimental": "(§1) Bacterial and fungal isolates used in this study were from various sources worldwide stored at GR Micro Ltd. and maintained, with minimal sub-culture, deep frozen at −70° C. as a dense suspension in a high protein matrix of undiluted horse serum.\n(§2) Minimum inhibitory concentration (MIC) of LTX-109 was determined using the following microbroth dilution methods for antimicrobial susceptibility testing published by the Clinical and Laboratory Standards Institute (CLSI, formerly NCCLS): • M7-A6 Vol. 23 No. 2 Jan. 2003 Methods for Dilution Antimicrobial Susceptibility Tests for Bacteria that Grow Aerobically; Approved Standard-Sixth Edition. National Committee for Clinical Laboratory Standards. • M100-S15 Vol. 25 No 1. January 2005 Performance Standards for Antimicrobial Susceptibility Testing; Fifteenth Informational Supplement. Clinical and Laboratory Standards Institute • M11-A6 Vol. 24 No. 2 Methods for Antimicrobial Susceptibility Testing of Anaerobic Bacteria; Approved Standard-Sixth Edition. National Committee for Clinical Laboratory Standards. • M27-A2 Vol. 22 No. 15 Reference Method for Broth Dilution Antifungal Susceptibility Testing of Yeasts; Approved Standard-Second Edition. National Committee for Clinical Laboratory Standards. • M38-A Vol. 22 No. 16 Reference Method for Broth Dilution Antifungal Susceptibility Testing of Filamentous Fungi; Approved Standard. National Committee for Clinical Laboratory Standards.\n(§3) MIC estimations were performed using wet plates, containing the LTX-109, prepared at GR Micro Ltd.\n(§4) Yeast and filamentous fungal MIC were performed in MOPS buffered RPMI 1640 medium (MOPS buffer obtained from Sigma Aldrich Ltd., RPMI 1640 obtained from Invitrogen Ltd, Paisley, Scotland). The yeast inocula were in the range 7.5×10^2-4×10^3 CFU/mL and the filamentous fungi approximately 8×10^3-1×10^5 CFU/mL.\n(§5) Following normal practice all the plates containing Mueller-Hinton broth were prepared in advance, frozen at −70° C. on the day of preparation and defrosted on the day of use. Fungal, Haemophilus and anaerobic MIC determinations were all performed in plates prepared on the same day."}, "Candida krusei": {"tested_on": "Candida krusei", "details": "Candida krusei - ATCC6258 - reference strain", "experimental": "as §1, §2, §3, §4, §5"}, "Candida parapsilosis": {"tested_on": "Candida parapsilosis", "details": "Candida parapsilosis - ATCC90018 - reference strain", "experimental": "as §1, §2, §3, §4, §5"}, "Candida tropicalis": {"tested_on": "Candida tropicalis", "details": "Candida tropicalis - ATCC750 - reference strain", "experimental": "as §1, §2, §3, §4, §5"}, "Aspergillus niger": {"tested_on": "Aspergillus niger", "details": "Aspergillus niger - G. R. Micro collection", "experimental": "as §1, §2, §3, §4, §5"}, "Streptococcus pyogenes": {"tested_on": "Streptococcus pyogenes", "details": "Streptococcus pyogenes - macrolide (MLS) resistant clinical isolate", "experimental": "as §1, §2, §3\n(§6) Cation-adjusted Mueller-Hinton broth (Oxoid Ltd., Basingstoke, UK and Trek Diagnostic Systems Ltd., East Grinstead, UK) (supplemented with 5% laked horse blood for Streptococcus spp.) was used for aerobic bacteria, with an initial inoculum of approximately 10^5 colony-forming units (CFU)/mL.\nas §5"}, "Streptococcus pneumoniae": {"tested_on": "Streptococcus pneumoniae", "experimental": "as §1, §2, §3, §6, §5"}, "Moraxella catarrhalis": {"tested_on": "Moraxella catarrhalis", "experimental": "as §1, §2, §3, §6, §5"}, "[6]": {"tested_on": "Influenza A strain A/WSN/33 (H1N1)", "type": "cell-based, Influenza A virus"}, "Vero cells": {"tested_on": "Vero cells", "assay": "Parallel test without virus for residual cytotoxicity (Example 8)", "details": "1% LTX-12 (w/v) or 0.2% Triton in PBS, contact time 1 h, after filtration, no virus"}, "[7]": {"tested_on": "SARS-CoV-2 isolate England/02/2020", "type": "cell-based"}}, "note": "Where two headings read alike, the source gives them in different places."}
{"smiles": "CCCCCCCCCCCCOS(=O)(=O)[O-].[Na+]", "note": "[SDS, Sodium dodecyl sulphate]", "values": [{"measurement": "Cytotoxicity", "setting": "HeLa cells [1]", "result": "Neat"}, {"measurement": "Cytotoxicity", "setting": "HeLa cells [2]", "result": "Neat"}, {"measurement": "TCID50/ml ± SEM", "setting": "Rhinovirus 60, 2268-CV37 [3]; Rhinovirus titre recovered after 1 hour with 3% LTX-109 (w/v) or 0.25% SDS, dilution, no filter, HeLa cells, 7 days", "result": "1.58E+01", "unit": "TCID50/ml"}, {"measurement": "Log decrease", "setting": "Rhinovirus 60, 2268-CV37 [3]; Rhinovirus, 3% LTX-109 or 0.25% SDS, 1 hour, compared to PBS control", "result": 3.0, "unit": "log"}, {"measurement": "Percentage", "setting": "Rhinovirus 60, 2268-CV37 [3]; decrease in Rhinovirus infectivity, 3% LTX-109 or 0.25% SDS, 1 hour, compared to PBS control", "result": 99.91, "unit": "%"}, {"measurement": "Log", "setting": "Rhinovirus 60, 2268-CV37 [3]; log of Rhinovirus titre after 1 hour with 3% LTX-109 or 0.25% SDS", "result": 1.2}, {"measurement": "% Reduction", "setting": "[4]", "result": 99.983, "unit": "%"}, {"measurement": "Log decrease", "setting": "[4]", "result": 3.67, "unit": "log"}, {"measurement": "Rounded %", "setting": "[4]; rounded % reduction of Rhinovirus infectivity", "result": 99.9, "unit": "%"}, {"measurement": "Cytotoxicity", "setting": "HeLaM cells", "result": "Neat"}, {"measurement": "TCID50/ml ± SEM", "setting": "Rhinovirus 60, 2268-CV37 [5]; Rhinovirus titre recovered after 1 hour with 1% LTX-109 (w/v) or 0.25% SDS, filtration, HeLa cells, 7 days", "result": "1.00E+02", "unit": "TCID50/ml"}, {"measurement": "Log decrease", "setting": "Rhinovirus 60, 2268-CV37 [5]; Rhinovirus, 1% LTX-109 or 0.25% SDS, 1 hour, compared to PBS control", "result": 3.6, "unit": "log"}, {"measurement": "Percentage", "setting": "Rhinovirus 60, 2268-CV37 [5]; decrease in Rhinovirus infectivity, 1% LTX-109 or 0.25% SDS, 1 hour, compared to PBS control", "result": 99.98, "unit": "%"}, {"measurement": "Log", "setting": "Rhinovirus 60, 2268-CV37 [5]; log of Rhinovirus titre after 1 hour with 1% LTX-109 or 0.25% SDS", "result": 2.0}]}
{"smiles": "N=C(N)NCCCC(N)C(=O)NC(Cc1ccc(-c2ccc3ccccc3c2)cc1)C(=O)NC(CCCNC(=N)N)C(=O)NCCc1ccccc1", "note": "(stereo not drawn) [LTX-7, Arg-Phe(4-(2-Naphthyl))-Arg-NH—CH2—CH2-Ph]", "values": [{"measurement": "MIC", "setting": "Mycoplasma pneumoniae", "result": 32, "unit": "µg/mL"}, {"measurement": "% Reduction", "setting": "[4]", "result": 95.791, "unit": "%"}, {"measurement": "Log decrease", "setting": "[4]", "result": 1.33, "unit": "log"}, {"measurement": "Cytotoxicity", "setting": "HeLaM cells", "result": "Neat"}, {"measurement": "Cytotoxicity", "setting": "MDCK-II cells", "result": "neat"}, {"measurement": "MIC", "setting": "Candida albicans; Candida albicans - ATCC24433 - reference strain", "result": 2, "unit": "µg/mL"}, {"measurement": "MIC", "setting": "Candida albicans; Candida albicans - ATCC90028 - reference strain", "result": 2, "unit": "µg/mL"}, {"measurement": "MIC", "setting": "Candida krusei", "result": 4, "unit": "µg/mL"}, {"measurement": "MIC", "setting": "Candida parapsilosis", "result": 4, "unit": "µg/mL"}, {"measurement": "MIC", "setting": "Candida tropicalis", "result": 2, "unit": "µg/mL"}, {"measurement": "MIC", "setting": "Aspergillus niger", "result": 4, "unit": "µg/mL"}, {"measurement": "MIC", "setting": "Streptococcus pyogenes", "result": 32, "unit": "µg/mL"}, {"measurement": "MIC", "setting": "Streptococcus pneumoniae; Streptococcus pneumoniae - penicillin intermediate clinical isolate", "result": 32, "unit": "µg/mL"}, {"measurement": "MIC", "setting": "Streptococcus pneumoniae; Streptococcus pneumoniae - penicillin resistant clinical isolate", "result": 32, "unit": "µg/mL"}, {"measurement": "MIC", "setting": "Moraxella catarrhalis; Moraxella catarrhalis - reduced fluoroquinolone susceptibility clinical isolate", "result": 8, "unit": "µg/mL"}, {"measurement": "MIC", "setting": "Moraxella catarrhalis; Moraxella catarrhalis - β-lactamase positive clinical isolate", "result": 4, "unit": "µg/mL"}, {"measurement": "% Reduction", "setting": "[6]", "result": 99.9988, "unit": "%"}]}
{"smiles": "CC(C)(C)c1cc(C(C)(C)C)c2[nH]c(C(C)(C)C)c(CC(NC(=O)C(N)CCCCN)C(=O)NC(CCCCN)C(=O)NCCc3ccccc3)c2c1", "note": "(stereo not drawn) [LTX-12, Lys-Tbt-Lys-NH—CH2—CH2-Ph]", "values": [{"measurement": "Cytotoxicity", "setting": "Vero cells", "result": "No cytotoxicity"}, {"measurement": "% Reduction", "setting": "[7]", "result": 99.977, "unit": "%"}]}
